Earlier results as cited in patent publication US20100055177A1, “MODIFIED RELEASE COMPOSITION OF LEVETIRACETAM AND PROCESS FOR THE PREPARATION THEREOF” (priority 2008, published 2010).

water solubility: about 1.04 g/ml
SMILES: CC[C@@H](C(N)=O)N1CCCC1=O [levetiracetam, (−)-(S)-(alpha)-ethyl-2-oxo-1-pyrrolidine acetamide]
